The values below come from ChEMBL document CHEMBL1139539, “Structure-based characterization and optimization of novel hydrophobic binding interactions in a series of pyrrolidine influenza neuraminidase inhibitors” (J Med Chem, 2005).

The target of this assay is Neuraminidase (Influenza B virus (strain B/Lee/1940), UniProt P03474). The assay can be described thus: Effective concentration against neuraminidase of Influenza B virus B/Memphis strain.

Molecules are shown by their SMILES.

Sequence of Neuraminidase (P03474 whole entry): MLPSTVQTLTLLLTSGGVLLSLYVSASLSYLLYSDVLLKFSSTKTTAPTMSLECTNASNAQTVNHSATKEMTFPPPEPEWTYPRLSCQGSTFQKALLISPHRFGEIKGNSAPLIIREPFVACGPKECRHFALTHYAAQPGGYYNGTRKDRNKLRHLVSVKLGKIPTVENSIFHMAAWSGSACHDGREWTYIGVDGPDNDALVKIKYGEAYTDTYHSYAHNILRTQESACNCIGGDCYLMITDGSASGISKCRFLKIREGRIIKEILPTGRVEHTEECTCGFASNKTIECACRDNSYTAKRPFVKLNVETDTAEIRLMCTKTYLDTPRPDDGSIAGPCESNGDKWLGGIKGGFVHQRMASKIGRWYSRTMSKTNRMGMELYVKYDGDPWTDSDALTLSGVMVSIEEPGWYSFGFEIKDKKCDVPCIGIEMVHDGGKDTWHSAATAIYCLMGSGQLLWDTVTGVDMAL

Regarding `CC(=O)N[C@@H](CC(C)C)[C@@H]1N[C@@H](C(=O)O)C[C@H]1c1c[nH]cn1`, the EC50 (commonly the midpoint of the concentration-response curve) was 11 µM.
The compound `C=C[C@@H]1C[C@H](C(=O)O)N[C@H]1[C@H](CC(C)C)NC(C)=O` showed a concentration giving a half-maximal response (EC50) of 23 µM.
With `CC(=O)N[C@@H](CC(C)C)[C@@H]1N[C@@H](C(=O)O)C[C@H]1c1nccs1`, the EC50 was 6 µM.
`CC(=O)N[C@@H](CC(C)C)[C@@H]1N[C@@H](C(=O)O)C[C@H]1C=C(F)F` came in with an EC50 of 9 µM.
